According to patent US5336673A, “3-substituted cephem compounds” (priority 1990, dated 1994):
≈ marks a conversion by molar mass, not a printed value. Read-outs that look alike come from different tables or passages of the source.

Columns and labels:
Escherichia coli DC O = assay: Antibacterial activity, MIC by Agar dilution method, standard test strain 8; assay type: cell-based; details: Escherichia coli DC O; 10^7 CFU/ml, 37° C., 18 hours; read-out: MIC
Protocol: (§1) The antibacterial activity was determined by an Agar dilution method as described below.
(§2) That is, the two-fold serial dilutions of the antibacterial compounds (1000 μg compound/ml) were prepared and dispersed in Muller Hinton Agar in a petri dish to a concentration of 100~0.002 μg/ml. The culture broths of standard test strains were inoculated on the medium to a concentration 10^7 CFU/ml, and incubated at 37° C. for 18 hours. The concentration of compounds(I) at which the strains were not grown was regarded as minimum inhibition concentration (MIC).
(§3) The results of antibacterial activity test of the representative examples of the compound (I) against 20 standard test strains shown in terms of MIC were indicated in Table 1.

Salmonella typhimurium = assay: Antibacterial activity, MIC by Agar dilution method, standard test strain 16; assay type: cell-based; details: Salmonella enterica, 10^7 CFU/ml, 37° C., 18 hours
Protocol: as §1, §2, §3
16. Salmonella typhimurium

[1] = test system: Klebsiella aerogenes 1522E; assay: Antibacterial activity, MIC by Agar dilution method, standard test strain 18; assay type: cell-based; details: Klebsiella aerogenes 1522E; 10^7 CFU/ml, 37° C., 18 hours; read-out: MIC
Protocol: as §1, §2, §3
18. Klebsiella aerogenes 1522E

[2] = test system: Streptococcus pyogenes A 308; assay: Antibacterial activity, MIC by Agar dilution method, standard test strain 1; assay type: cell-based; details: A308, 10^7 CFU/ml, 37° C., 18 hours
Protocol: as §1, §2, §3
1. Streptococcus pyogenes A 308

[3] = test system: Streptococcus faecium MD 86; assay: Antibacterial activity, MIC by Agar dilution method, standard test strain 3; assay type: cell-based; details: Enterococcus faecium, MD86, 10^7 CFU/ml, 37° C., 18 hours
Protocol: as §1, §2, §3
3. Streptococcus faecium MD 86

Escherichia coli O 55 = assay: Antibacterial activity, MIC by Agar dilution method, standard test strain 7; assay type: cell-based
Protocol: as §1, §2, §3

[4] = test system: Staphylococcus aureus SG 511; assay: Antibacterial activity, MIC by Agar dilution method, standard test strain 4; assay type: cell-based; details: SG511, 10^7 CFU/ml, 37° C., 18 hours
Protocol: as §1, §2, §3
4. Staphylococcus aureus SG 511

[5] = test system: Streptococcus pyogenes A 77; assay: Antibacterial activity, MIC by Agar dilution method, standard test strain 2; assay type: cell-based; details: A77, 10^7 CFU/ml, 37° C., 18 hours
Protocol: as §1, §2, §3
2. Streptococcus pyogenes A 77

[6] = test system: Staphylococcus aureus 503; assay: Antibacterial activity, MIC by Agar dilution method, standard test strain 6; assay type: cell-based; details: 10^7 CFU/ml, 37° C., 18 hours
Protocol: as §1, §2, §3
6. Staphylococcus aureus 503

Escherichia coli TEM = assay: Antibacterial activity, MIC by Agar dilution method, standard test strain 10; assay type: cell-based
Protocol: as §1, §2, §3

Escherichia coli 1507E = assay: Antibacterial activity, MIC by Agar dilution method, standard test strain 11; assay type: cell-based; details: Escherichia coli 1507E; 10^7 CFU/ml, 37° C., 18 hours; read-out: MIC
Protocol: as §1, §2, §3

[7] = test system: Pseudomonas aeruginosa 1592E; assay: Antibacterial activity, MIC by Agar dilution method, standard test strain 13; assay type: cell-based; details: 10^7 CFU/ml, 37° C., 18 hours
Protocol: as §1, §2, §3
13. Pseudomonas aeruginosa 1592E

[8] = test system: Enterobacter cloacae 1321E; assay: Antibacterial activity, MIC by Agar dilution method, standard test strain 20; assay type: cell-based
Protocol: as §1, §2, §3
20. Enterobacter cloacae 1321E

Klebsiella oxytoca 1082E = assay: Antibacterial activity, MIC by Agar dilution method, standard test strain 17; assay type: cell-based; details: 10^7 CFU/ml, 37° C., 18 hours
Protocol: as §1, §2, §3

Staphyloccus aureus 285 = assay: Antibacterial activity, MIC by Agar dilution method, standard test strain 5; assay type: cell-based; details: 10^7 CFU/ml, 37° C., 18 hours
Protocol: as §1, §2, §3
5. Staphyloccus aureus 285

[9] = test system: Pseudomonas aeruginosa 9027; assay: Antibacterial activity, MIC by Agar dilution method, standard test strain 12; assay type: cell-based; details: 10^7 CFU/ml, 37° C., 18 hours
Protocol: as §1, §2, §3
12. Pseudomonas aeruginosa 9027

Enterobacter cloacae P99 = assay: Antibacterial activity, MIC by Agar dilution method, standard test strain 19; assay type: cell-based; details: P99, 18 h
Protocol: as §1, §2, §3
19. Enterobacter cloacae P99

[10] = test system: Pseudomonas aeruginosa 1771; assay: Antibacterial activity, MIC by Agar dilution method, standard test strain 14; assay type: cell-based; details: 10^7 CFU/ml, 37° C., 18 hours
Protocol: as §1, §2, §3
14. Pseudomonas aeruginosa 1771

[11] = test system: Pseudomonas aeruginosa 1771M; assay: Antibacterial activity, MIC by Agar dilution method, standard test strain 15; assay type: cell-based; details: 18 h
Protocol: as §1, §2, §3
15. Pseudomonas aeruginosa 1771M

Escherichia coli DC 2 = assay: Antibacterial activity, MIC by Agar dilution method, standard test strain 9; assay type: cell-based; details: DC2; Escherichia coli DC 2; 10^7 CFU/ml, 37° C., 18 hours; read-out: MIC
Protocol: as §1, §2, §3

[12] = test system: Gram-positive strains as well as Gram-negative strains including Pseudomonas; assay: Antibacterial activity (summary in words); assay type: cell-based; details: Gram-positive and Gram-negative strains
Protocol: as §1, §2

Acute toxcity test = details: in vivo, male ICR-mouse, after 1 week
Protocol: Further, in order to illustrate the usefulness of the compounds (I) as a drug, compounds of Examples 12, 18 and 36 were tested for acute toxcity by using 4 weeks-old male ICR-mouse as a test animal.
the compounds were dissolved in physiological saline and phosphate buffered solution (pH 7.0), or if they were […], suspended in carboxymethylcellulose or gum Arabic and then mixed with phosphate buffered solution.
The solution or mixture was administered to the tested animals intravenously or subcutaneously and, after 1 week, the number of surviving animals was calculated.

[13] = Escherichia coli TEM, 10^7 CFU/ml, 37° C., 18 hours, read-out: MIC
[14] = Enterobacter cloacae 1321E, 10^7 CFU/ml, 37° C., 18 hours, read-out: MIC

Row | Compound | MIC (Escherichia coli DC O) [µg/mL] | MIC (Salmonella typhimurium) [µg/mL] | MIC [1] [µg/mL] | MIC [2] [µg/mL] | MIC [3] [µg/mL] | MIC [4] [µg/mL] | MIC [5] [µg/mL] | MIC [6] [µg/mL] | MIC (Escherichia coli TEM; [13]) [µg/mL] | MIC (Escherichia coli 1507E) [µg/mL] | MIC [7] [µg/mL] | MIC [8, 14] [µg/mL] | MIC (Klebsiella oxytoca 1082E) [µg/mL] | MIC (Staphyloccus aureus 285) [µg/mL] | MIC [9] [µg/mL] | MIC (Enterobacter cloacae P99) [µg/mL] | MIC [10] [µg/mL] | MIC [11] [µg/mL] | MIC (Escherichia coli DC 2) [µg/mL] | antibacterial activity (in words) [12] | other results
1 | CO/N=C(\C(=O)N[C@@H]1C(=O)N2C(C(=O)[O-])=C(C[n+]3nn(N)c4ccccc43)CS[C@H]12)c1nsc(N)n1 [Example 85, (6R,7R)-7-[(Z)-2-(5-amino-1,2,4-thiadiazol-3-yl)-2-methoxyiminoacetamido]-3-[(1-aminobenzotriazol-3-ium)methyl]-ceph-3-em-4-carboxylate] | 0.025 (≈ 0.0471 µM) | 0.195 (≈ 0.368 µM) | 0.049 (≈ 0.0924 µM) | 0.007 (≈ 0.0132 µM) | 100 (≈ 188 µM) | 0.391 (≈ 0.737 µM) | 0.004 (≈ 0.00754 µM) | 0.391 (≈ 0.737 µM) | 0.025 (≈ 0.0471 µM) | 0.049 (≈ 0.0924 µM) | 3.12 (≈ 5.89 µM) | 0.007 (≈ 0.0132 µM) | 0.781 (≈ 1.47 µM) | 1.56 (≈ 2.95 µM) | 3.12 (≈ 5.89 µM) | 25 (≈ 47.1 µM) | 1.56 (≈ 2.95 µM) | 1.56 (≈ 2.95 µM) | 0.025 (≈ 0.0471 µM) | – | MIC (Escherichia coli O 55; O55, Escherichia coli O 55, 10^7 CFU/ml, 37° C., 18 hours, read-out: MIC): 0.007 µg/mL (≈ 0.0132 µM)
2 | CO/N=C(\C(=O)N[C@@H]1C(=O)N2C(C(=O)[O-])=C(C[n+]3cn(N)cn3)CS[C@H]12)c1csc(N)n1 [Example 12, (6R,7R)-7-[(Z)-2-(2-aminothiazol-4-yl)-2-methoxyiminoacetamido]-3-[(4-amino-1,2,4-triazol-2-ium)methyl]-ceph-3-em-4-carboxylate] | 0.098 (≈ 0.204 µM) | 0.098 (≈ 0.204 µM) | 0.049 (≈ 0.102 µM) | 0.007 (≈ 0.0146 µM) | > 100 | 1.56 (≈ 3.26 µM) | 0.007 (≈ 0.0146 µM) | 0.781 (≈ 1.63 µM) | – | 0.098 (≈ 0.204 µM) | 6.25 (≈ 13 µM) | – | 1.56 (≈ 3.26 µM) | 3.12 (≈ 6.52 µM) | 12.5 (≈ 26.1 µM) | 100 (≈ 209 µM) | 6.25 (≈ 13 µM) | 0.195 (≈ 0.407 µM) | 0.097 (≈ 0.202 µM) | excellent antibacterial activity | MIC (Escherichia coli O 55; Escherichia coli, O55, 18 h): 0.025 µg/mL (≈ 0.0521 µM); MIC (Escherichia coli TEM; Escherichia coli, 18 h): 0.049 µg/mL (≈ 0.102 µM); MIC ([8]; Enterobacter cloacae, 1321E, 18 h): 0.025 µg/mL (≈ 0.0521 µM); LD50 at 168 h (Acute toxcity test; sc, Subcutaneous administration): > 6000 mg/kg; LD50 at 168 h (Acute toxcity test; Intravenous administration): > 4000 mg/kg
3 | CO/N=C(\C(=O)N[C@@H]1C(=O)N2C(C(=O)[O-])=C(C[N+]3(N)CCCC3)CS[C@H]12)c1csc(N)n1 [Example 1, (6R,7R)-7-[(Z)-2-(2-aminothiazol-4-yl)-2-methoxyiminoacetamido]-3-(1-aminopyrrolidiniummethyl)ceph-3-em-4-carboxylate] | 0.195 (≈ 0.405 µM) | 0.781 (≈ 1.62 µM) | 0.195 (≈ 0.405 µM) | 0.025 (≈ 0.0519 µM) | > 100 | 6.26 (≈ 13 µM) | 0.025 (≈ 0.0519 µM) | 1.56 (≈ 3.25 µM) | 0.391 (≈ 0.812 µM) | 0.391 (≈ 0.812 µM) | 100 (≈ 208 µM) | 0.098 (≈ 0.204 µM) | 12.5 (≈ 26 µM) | 12.5 (≈ 26 µM) | 100 (≈ 208 µM) | > 100 | 50 (≈ 104 µM) | 3.12 (≈ 6.49 µM) | 0.391 (≈ 0.812 µM) | excellent antibacterial activity | MIC (Escherichia coli O 55; Escherichia coli, O55, 18 h): 0.195 µg/mL (≈ 0.405 µM)
